Consider 3 molecules from patent publication US6617114B1, “Identification of drug complementary combinatorial libraries” (priority 1996, dated 2003).

The target of test [1] is T1, E. coli ProRS (Escherichia coli, UniProt P16659). As to the kind of experiment: ELSA of ProRS surrogate ligand. Format: binding. The settings on record: tested on ProRS, GST-src SH3, GST, GST-UL44, TyrRS, GST-MDM2. As to the method:
(§1) Target protein was immobilized in microtiter wells by incubating 0.5-2.0 μg per well in 100 μl of 0.1 M NaHCO3 overnight at 4° C. […] During the 1 hour blocking period, the SA-AP:surrogate ligand conjugate was prepared by mixing 2 μg SA-AP and 50 pmol biotinylated surrogate ligand for each well of target protein. (This corresponds to a 1:1 ratio of biotinylated peptide to biotin binding sites.) The mixture was incubated at room temperature for 15-20 minutes and then diluted with Tris-buffered saline-TWEEN-20 detergent (TBST) 10 mM Tris-HCl, pH 8.0, 150 mM NaCl, 0.05% TWEEN-20 detergent such that there was 100 μl of conjugate per well. For lower concentrations of surrogate ligand, an unrelated biotinylated peptide was titrated in to keep the total amount of biotinylated peptide at 50 pmol/well and total SA-AP at 2 μg/well.
(§2) After blocking, the wells were washed once with 200 μl TBST. The surrogate ligand:SA-AP conjugate was then added (100 μl/well) and incubated at room temperature for 2 hours. The wells were then washed 5 times with 300 μl TBST using a BioRad 1575 Immunowash plate washer. The assay was developed by adding 100 μl of pNPP and incubating at room temperature for 5-10 minutes. The absorbance was read at 405 nm.
(§3) A peptide corresponding to the most often isolated phage was synthesized and used in an ELSA as described in example 1. […]

Test [2] has as its target T1, E. coli ProRS. Nature of the test: ProRS charging assay. Format: biochemical. Here is the method: One question that could be answered with peptides designed from these phage is whether or not they are directed to random regions on the target protein or if they target active sites and regions of other biological interactions. The peptides used in the above ELSAs were added to a charging assay to assess its affects on enzymatic activity of the target.

The target of the next test is TyrRS (Haemophilus influenzae, UniProt P43836). Nature of the test: ELSA of TyrRS surrogate ligand. Format: binding. Particulars: tested on TyrRS, GST-src SH3, GST, GST-UL44, GST-MDM2, ProRS. Here is the method: as §1
After blocking, the wells were washed once with 200 μl TBST. The surrogate ligand:SA-AP conjugate was then added (100 μl/well) and incubated at room temperature for 2 hours. The wells were then washed 5 times with 300 μl TBST using a BioRad 1575 Immunowash plate washer. The assay was developed by adding 100 μl of pNPP and incubating at room temperature for 5-10 minutes. The absorbance was read at 405 nm. […]
The ability of the compound to inhibit the binding of the TyrRS1B peptide to TyrRS was determined. […]

The target in test [3] is T2, E. coli ProRS (Escherichia coli, UniProt P16659).
T2 sequence (P16659 whole entry, looked up): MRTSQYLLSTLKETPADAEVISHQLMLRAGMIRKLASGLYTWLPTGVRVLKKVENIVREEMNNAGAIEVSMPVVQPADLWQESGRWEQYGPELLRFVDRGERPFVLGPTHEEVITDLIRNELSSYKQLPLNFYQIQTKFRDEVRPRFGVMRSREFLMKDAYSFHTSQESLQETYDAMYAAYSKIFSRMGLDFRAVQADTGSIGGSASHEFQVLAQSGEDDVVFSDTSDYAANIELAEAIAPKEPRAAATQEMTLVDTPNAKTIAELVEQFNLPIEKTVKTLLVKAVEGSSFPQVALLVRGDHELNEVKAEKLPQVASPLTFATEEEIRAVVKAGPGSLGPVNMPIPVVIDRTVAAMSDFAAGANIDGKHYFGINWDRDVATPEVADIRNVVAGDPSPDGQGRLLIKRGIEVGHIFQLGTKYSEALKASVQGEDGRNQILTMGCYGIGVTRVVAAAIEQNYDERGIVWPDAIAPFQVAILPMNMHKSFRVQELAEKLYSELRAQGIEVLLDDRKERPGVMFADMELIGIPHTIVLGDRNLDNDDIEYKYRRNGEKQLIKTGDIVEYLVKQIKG
As to the kind of experiment: ELSA of ProRS surrogate ligand. The class given is binding. The settings on record: self-competition. Here is the method: as §1, §2, §3

Where a SMILES comes first, the peptide text is derived from it. Bridges are numbered along the chain shown (N, C = ends).

TyrRS, sequence (P43836 whole entry): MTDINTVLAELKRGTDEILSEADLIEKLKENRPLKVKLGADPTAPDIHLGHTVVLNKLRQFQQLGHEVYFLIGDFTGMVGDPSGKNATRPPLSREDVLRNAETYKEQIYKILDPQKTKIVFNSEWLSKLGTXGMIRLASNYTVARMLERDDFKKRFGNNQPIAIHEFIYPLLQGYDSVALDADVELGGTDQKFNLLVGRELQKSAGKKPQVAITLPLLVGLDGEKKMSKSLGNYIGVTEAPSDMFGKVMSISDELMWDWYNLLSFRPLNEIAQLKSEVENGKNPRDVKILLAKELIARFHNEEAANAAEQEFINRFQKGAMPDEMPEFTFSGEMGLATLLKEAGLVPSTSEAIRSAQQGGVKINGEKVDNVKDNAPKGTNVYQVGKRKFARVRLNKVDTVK

With `CC[C@H](C)[C@@H]1NC(=O)[C@H](C)NC(=O)[C@@H](NC(=O)[C@@H](NC(=O)[C@H](CCCNC(=N)N)NC(=O)[C@@H](N)CO)C(C)C)CSSC[C@@H](C(=O)N[C@@H](CO)C(=O)N[C@@H](CCCNC(=N)N)C(=O)O)NC(=O)CNC(=O)[C@H](CC(=O)O)NC(=O)[C@H](CC(C)C)NC(=O)[C@H](CC(=O)O)NC(=O)[C@@H]2CCCN2C(=O)[C@H](Cc2c[nH]c3ccccc23)NC1=O` [ProRS BioKey, S R V C A I W P D L D G C S R] (H-SRVCAIWPDLDGCSR-OH; disulfide 4-13; N-terminus and C-terminus assumed), the “specificity of binding of biotinylated peptide” value at E. coli ProRS [1] is on record as “specific for E. coli ProRS”. Also, the “time of preincubation with the peptide for 50% inhibition” value at E. coli ProRS [2] (530 μM peptide) is recorded as “about 1.5 hours”. Moreover, on E. coli ProRS [2] (charging assay), the mode of inhibition result was “competitive in respect to proline”.

For “L Y S W P D E Q Y E R P (LYSWPDEQYERP) [Peptide 1]”, the “specificity of binding of biotinylated peptide” value in the test with TyrRS was “binds to TyrRS specifically”.

For “S R V C A I W P D L D G C S R (SRVCAIWPDLDGCSR) [non-biotinylated ProRS peptide]”, the “disruption of biotinylated ProRS peptide binding” value in the test with E. coli ProRS [3] is given as “disrupted in a dose dependent fashion”.
